Experimental data: patent publication US10538571B2, “Compositions and methods for neurological diseases” (Coda Biotherapeutics, Inc., priority 2017, dated 2020)

Experiments:
[1] = molecular target: T1, engineered chimeric LGIC receptor SEQ ID NO:41 (as SEQ ID NO:33, further comprising the β1-β2 loop domain from GlyRα1) (Homo sapiens, UniProt P36544, F159M/H163T/I152M/K68T/N69T/Q70M/R155K/V154L/W156N/Y151P); assay: Two electrode voltage clamp currents in Xenopus oocytes expressing the receptor; format: cell-based; conditions: FIG. 5
T1 construct: expressed in transfected cells; host or cells: Xenopus oocytes (cDNA injection)
Protocol: (§1) For Xenopus oocyte studies, injections of cDNAs encoding for ion channels at a final concentration of 0.04 μg/μL were performed using a proprietary automated injection device and receptor expression examined at least two days later. Oocytes were poked with two electrodes and their membrane potential maintained at −80 mV throughout the experiment. All recordings were performed at 18° C. and cells were superfused with OR2 medium containing in mM: NaCl 82.5, KCl 2.5, HEPES 5, CaCl2.2H2O 1.8, MgCl2.6H2O 1, pH 7.4. Recordings progressed if oocytes had sufficiently low holding current, in which case they were then subjected to ligand or test compound application (5-10 s wash intervals), with 100 s of wash in between doses. Currents evoked by acetylcholine or other agonists were recorded using an automated process equipped with standard two electrode voltage clamp configuration (TEVC). Data were captured and analyzed using HiQScreen proprietary data acquisition and analysis software running under Matlab (Mathworks Inc.). Acetylcholine was prepared as a concentrated stock solution (10-1 M) in water and then diluted in the recording medium to obtain the desired test concentration. Nicotine was diluted in water as stock solution (10-1 M), kept frozen and diluted immediately prior to the experiment at the desired concentration. Compounds were prepared as stock solution (10-1M) in OR2 and then diluted in the recording medium to obtain the desired test concentration. Stock solution for Compound-1 was made in OR2 at pH 5 adjusted with HCl. To assess that dilution at the final concentration of this stock solution introduced no significant changes, the pH of the final solution was confirmed using a colorimetric assay (Galietta L. J. V., et al. 2001. FEBS Letters 499: 220-224. Kruger W., et al. (2005). Neuroscience Letters 380: 340-345.)
(§2) To better understand the impact of the heterologous domains that had been inserted into the channels, the ligand-dependent response profiles of wild type α7-nAChR and various engineered chimeric LGIC receptors to acetylcholine as well as to non-native ligands TC-6987, AZD-0328, and Facinicline/RG3487 were assessed. Receptors were transiently expressed in […] cells and currents were measured on an automated patch clamp system (Fluxion Biosciences) following 1 second addition of drug. Inclusion of a GlyRα1 Cys-loop sequence in the extracellular domain increased the potency of all small molecules on the engineered receptor (leftward shift in EC50) (e.g. SEQ ID NO:35, FIG. 4C vs SEQ ID NO:16, FIG. 4B). […] Inclusion of both the Cys-loop and β1-β2 loop sequences of GlyRα1 in the extracellular domain reduced the sensitivity by about 1 log from that observed with the full Cys-loop sequence alone, but further increased conductance approximately 2-fold and slowed the rate of deactivation of the channel (SEQ ID NO:41, FIG. 4E vs. SEQ ID NO:33, FIG. 4D).

[2] = molecular target: T2, engineered chimeric LGIC receptor SEQ ID NO:33 (α7-nAChR ligand binding domain with GlyRα1 Cys-loop, GlyRα1 ion pore domain) (Homo sapiens, UniProt P36544, F159M/H163T/I152M/R155K/V154L/W156N/Y151P); assay: as above; format: cell-based
T2 construct: expressed in transfected cells; host or cells: Xenopus oocytes (cDNA injection)
Protocol: as §1, §2

[3] = tested on: spared nerve injury (SNI) model; assay: Spared nerve injury (SNI) model of neuropathic pain, mechanical withdrawal threshold (von Frey, up-down method) after AAV.hSYN-α7-nAChR/GlyRα1 injection; format: in vivo, rat; conditions: single IP injection
Source text: Eight expression cassettes are constructed using standard molecular biology techniques. All contain a human synapsin-1 (hSYN) promoter linked to engineered chimeric receptors comprising a ligand binding domain of α7-nAChR and a Cys-loop domain and ion pore domain of GlyRα1. Their design is as follows:
These cassettes are subcloned into AAV bacmids, purified, transfected into Sf9 insect cells to produce recombinant bacuvlovirus, and then amplified. Sf9 cells are double infected using the amplified recombinant baculovirus containing the hSYN-α7-nAChR/GlyRα1 cassettes and another recombinant baculovirus containing the Rep and AAV6(Y705+731F+T492V) Cap genes to produce recombinant AAV vectors. The viral vectors are purified, viral titer determined using qPCR, and SDS-PAGE used to verify the purity of AAV vectors.
To produce mechanical hypersensitivity in a model that mimics a neuropathic pain condition, the spared nerve injury (SNI) model (a validated model of mechanical allodynia) is used (Shields et al., 2003, The Journal of Pain, 4, 465-470). This model is produced by the sectioning of the common peroneal and the sural nerves and isolating the tibial branch. Mechanical withdrawal threshold is assessed by placing rats on an elevated wire-mesh grid and stimulating the plantar surface of the hind paw with von Frey filaments.
A dorsal hemilaminectomy is made at the level of the lumbar enlargement to expose two segments (about 1.5-2 mm) of lumbar spinal cord, after which the dura mater is incised and reflected. The viral solution is loaded into a glass micropipette (prefilled with mineral oil). The micropipette is connected to a manual micro-injector mounted on a stereotactic apparatus. The viral solution is targeted to the dorsal horn (left side). Along the rostro-caudal axis within the exposed region, 6 injections of 240 nl each are performed, in an equidistant linear fashion. After each injection, 1 min of resting time is observed and then the muscle layer is sutured, the skin closed with staples, and the animals were allowed to recover with heated-pad before they were returned to their home cages. Animals are perfused for histological analysis after the last behavior test.
The injection is performed with a borosilicate glass capillary (0.78/1 mm internal/external diameters) pulled to a fine point, attached by polyethylene tubing (0.4/0.8 mm internal/external diameters) to a syringe mounted in a microinjection pump. The needle is mounted on an extended arm of a stereotaxic frame swung to the outside (used to hold and manipulate the needle only). Tubing, syringe, and needle are all filled with water. One microliter air is taken up into the needle followed by 3 μL of the viral vector solution. The needle is loaded separately with this volume for each injection. Animals are anesthetized prior to surgery. Following an incision along the dorsal midline, the L4 and L5 DRG are exposed by removal of the lateral processes of the vertebrae. The epineurium lying over the DRG is opened, and the glass needle inserted into the ganglion, to a depth of 400 μm from the surface of the exposed ganglion. After a 3-minute delay to allow sealing of the tissue around the glass capillary tip, 1.1 μL virus solution was injected at a rate of 0.2 μL/minute. After a further delay of 2 minutes, the needle is removed. The L4 ganglion is injected first followed by the L5 ganglion. The muscles overlying the spinal cord are loosely sutured together with a 5-0 suture and the wound closed. Animals are allowed to recover at 37° C. and received postoperative analgesia.
Rats are first anesthetized and then placed vertically with their head fixed in a stereotaxic frame. An incision is made in the base of the neck to expose the groove in the nuchal crest. An incision is made (1-2 mm) in the cisternal membrane to a depth such that cerebrospinal fluid leaks out. […]

T2 sequence (P36544 with tags, fused parts or gaps Y151P/I152M/V154L/R155K/W156N/F159M/H163T): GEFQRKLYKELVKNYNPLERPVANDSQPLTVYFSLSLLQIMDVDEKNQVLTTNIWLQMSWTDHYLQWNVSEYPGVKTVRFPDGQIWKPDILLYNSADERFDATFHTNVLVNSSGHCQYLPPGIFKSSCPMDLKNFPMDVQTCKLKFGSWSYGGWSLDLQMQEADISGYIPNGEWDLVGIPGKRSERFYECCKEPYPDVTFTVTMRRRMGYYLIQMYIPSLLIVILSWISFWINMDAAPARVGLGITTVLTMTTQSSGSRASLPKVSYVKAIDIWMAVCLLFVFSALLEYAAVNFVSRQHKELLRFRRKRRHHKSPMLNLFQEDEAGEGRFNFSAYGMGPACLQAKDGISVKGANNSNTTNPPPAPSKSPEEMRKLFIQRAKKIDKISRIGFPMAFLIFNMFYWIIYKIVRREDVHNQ
T1 sequence (P36544 with tags, fused parts or gaps K68T/N69T/Q70M/Y151P/I152M/V154L/R155K/W156N/F159M/H163T): as the sequence (P36544 with tags, fused parts or gaps Y151P/I152M/V154L/R155K/W156N/F159M/H163T) above, with K46T, N47T, Q48M counted along it

Structure (SMILES): c1ccc(-c2nnc(O[C@@H]3C4CC5C[C@H]3CN(C5)C4)s2)cc1 [ABT-126]
- sensitivity of SEQ ID NO:41 to ligand compared with wild type α7-nAChR [1]: comparably sensitive
- sensitivity of SEQ ID NO:33 to ligand compared with wild type α7-nAChR ([2]; Xenopus oocytes, FIG. 5): approximately as sensitive

Structure (SMILES): O=C(N[C@@H]1CN2CCC1CC2)c1n[nH]c2ccccc12 [Facinicline/RG3487]
- EC50 on SEQ ID NO:41 fold lower (left shifted) than for wild type [1]: approximately 2 fold
- sensitivity of SEQ ID NO:41 compared with SEQ ID NO:33 [1]: less sensitive
- fold more sensitive than wild type α7-nAChR ([2]; Xenopus oocytes, FIG. 5): ~10 fold
- reversal of mechanical hypersensitivity ([3]; high dose of ligand, all rats (Chimera 1-8)): complete reversal
- reversal of mechanical hypersensitivity ([3]; low dose, rats receiving Chimera 1, 2, 4, 5, 6 and 8): complete reversal
- reversal of mechanical hypersensitivity ([3]; low dose, rats receiving Chimera 3 and 7): partial reversal

Structure (SMILES): O=C(N[C@@H]1C2CCN(CC2)[C@H]1Cc1cccnc1)c1cc(F)cc(F)c1 [TC-6987]
- sensitivity of SEQ ID NO:41 to ligand compared with wild type α7-nAChR [1]: comparably sensitive
- sensitivity of SEQ ID NO:33 to ligand compared with wild type α7-nAChR ([2]; Xenopus oocytes, FIG. 5): approximately as sensitive
- agonist activity on SEQ ID NO:33 ([2]; similar to wild type): partial agonist activity

Structure (SMILES): CN1CCCC1c1cccnc1 (stereo not shown) [nicotine]
- EC50 on SEQ ID NO:41 fold larger (right shifted) than for wild type [1]: ~7 fold
- fold less sensitive than wild type α7-nAChR ([2]; Xenopus oocytes, FIG. 5): approximately 2 fold
